Experimental data as given in patent US11192849B2, “Compounds, compositions, and methods for modulating ferroptosis and treating excitotoxic disorders” (THE TRUSTEES OF COLUMBIA UNIVERSITY IN THE CITY OF NEW YORK, priority 2013, dated 2021).

Assays:
[1] = 2,2-Diphenyl-1-picrylhydrazyl (DPPH) cell-free antioxidant assay; type: biochemical; details: test compound 0.05 mM, 30 minutes
Procedure: The stable radical DPPH (Blois, 1958) was dissolved in methanol to a final working concentration of 0.05 mM. This was prepared as follows. First, a 100× stock concentration (5 mM) was prepared by dissolving 3.9 mg DPPH in 2 mL methanol. Then, for 25 mL of 0.05 mM final working solution, 250 μL of the 5 mM solution was added to 24.75 mL of methanol. 1 mL of DPPH solution was added to a small volume (<5 μL) each test compound dissolved in DMSO. The final concentration of each test compound was 0.05 mM. Samples were inverted several times and allowed to incubate at room temperature for 30 minutes. Samples were then aliquoted to white 96-well solid-bottom dishes (Corning) and absorbance at 517 nm was recorded using a TECAN M200 plate reader. All values were normalized to background (methanol only). The experiment was repeated three times and the data was averaged.
In parallel with the above cell-based assay, a 2,2-diphenyl-1-picrylhydrazyl (DPPH) assay was used to examine the ability of each analog to scavenge free radicals in a cell-free in vitro solution—a test of intrinsic antioxidant capacity. […] Redox active analogs scavenged the DPPH radical by 60-90% within 30 minutes (FIG. 18a).

[2] = tested on: HT-1080 cells; experiment: Inhibition of erastin (10 μM)-induced death in HT-1080 cells (Alamar Blue); type: cell-based, human; details: for prevention of erastin-induced death: erastin-treated HT-1080 cells
In short: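 HT-1080 cells (1,000/well) were treated next day with 10 μM erastin plus a compound dilution series for 24 h. Alamar Blue (10% final) was then added for 6 h and fluorescence read at ex/em 530/590.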

[3] = tested on: HT-1080 cells; experiment: Acridine orange relocalization (lysosomal membrane permeabilization) in HT-1080 cells; type: cell-based, human; details: acridine orange re-localization
Procedure: 200,000 HT-1080 cells were seeded into 6-well dishes (Corning). The next day, cells were incubated with 25 ng/mL of AO for 15 minutes, then medium was removed and cells were incubated in growth medium for 15 minutes. […] Relocalization of AO from lysosomes (discrete red puncta) to the cytosol (diffuse green color) was determined using an EVOS fl digital inverted fluorescent microscope (Advanced Microscopy Group) equipped with GFP (ex/em 470/525) and RFP (ex/em 531/593) light cubes.

[4] = tested on: rat organotypic hippocampal slice culture (OHSC); experiment: Glutamate excitotoxic injury in organotypic hippocampal slice cultures (PI uptake); type: cell-based; details: 5 mM L-glutamate 3 hours; Fer-1 2 μM, CPX 5 μM, MK-801 10 μM; 24 hours
Procedure: OHSCs were cultured as previously described (Morrison et al., 2002) with approval from Columbia University's Institutional Animal Care and Use Committee (IACUC). Briefly, Sprague Dawley rat pups (P8-P10) were rapidly decapitated, and the hippocampus placed in ice-cold Gey's balanced salt solution (Sigma). 400 μm thick sections were cut using a Mcllwain tissue chopper and immediately plated on Millicell cell culture inserts (Millipore, Billerica, Mass.) in Neurobasal (Invitrogen) media supplemented with B27 (1×, Invitrogen), GlutaMAX (1 mM, Invitrogen), and D-glucose (4.5 mg/mL, Sigma) at 37° C. and 5% CO2. After 2 days in vitro (DIV), the media was changed to medium containing serum comprised of 50% DMEM (Sigma), 25% heat-inactivated horse serum (Sigma), 25% Hank's balanced salt solution (Sigma), GlutaMAX (1 mM, Invitrogen), and D-glucose (4.5 mg/mL, Sigma). Medium was changed every 2-3 days.
After 10-14 DIV, OBSCs were exposed to an excitotoxic injury consisting of a 3 hour exposure to 5 mM L-glutamate in SFM (Morrison et al., 2002). […] After the 3 hour exposure, the cultures were placed in fresh serum free media (SFM) containing 75% DMEM, 25% Hank's balanced salt solution, GlutaMAX (1 mM), D-glucose (4.5 mg/mL) until cell death was quantified at 24 hours. […]
Quantification of cell death has been described previously (Cater et al., 2007; Morrison et al., 2002). […] Percentage cell death was expressed as the number of pixels in the ROI above a threshold in the PI fluorescent image divided by the total number of pixels in the ROI.
OHSCs were treated with a lethal excitotoxic stimulus (5 mM L-glutamate, 3 hours) that mimics the consequences of stroke and neurodegenerative disease (Morrison et al., 2002; Sundstrom et al., 2005) (FIG. 5A). […] The effects of these compound treatments on propidium iodide (PI) uptake were analyzed, as an indicator of cell death, 24 hours following the end of glutamate treatment, in 3 defined regions of the OHSCs: the dentate gyrus (DG), the CA1 and the CA3 fields of the hippocampus.

[5] = tested on: BJeLR cells; experiment: Erastin-induced death and ROS in BJeLR cells; type: cell-based, human; details: erastin 10 μM, 6-AN 200 μM
Procedure: The day before the experiment, 200,000 cells/well were seeded in 6-well dishes (Corning Inc., Corning, N.Y.). The day of the experiment, cells were treated with test compounds for the indicated times, then harvested by trypsinization, resuspended in 500 μL Hanks Balanced Salt Solution (HBSS, Gibco, Invitrogen Corp., Carlsbad, Calif.) containing either H2DCFDA (25 μM), C11-BODIPY(581/591) (2 μM) or MitoSOX (5 μM) (all from Molecular Probes, Invitrogen) and incubated for 10 minutes at 37° C. in a tissue culture incubator. Cells were then resuspended in 500 μL of fresh HBSS, strained through a […] cell strainer (BD Falcon, BD Biosciences, San Jose, Calif.), and analyzed using a flow cytometer (FACSCalibur or Accuri C6, BD Biosciences), which was equipped with 488-nm laser for excitation. Data was collected from the FL1 (H2DCFDA, C11-BODIPY) or FL2 channel (MitoSOX). A minimum of 10,000 cells were analyzed per condition.
Cell viability was typically assessed in 384-well format by Alamar Blue (Invitrogen) fluorescence (ex/em 530/590) measured on a Victor3 platereader (Perkin Elmer, Waltham, Mass.). In some experiments, Trypan Blue dye exclusion counting was performed using an automated cell counter (ViCell, Beckman-Coulter Inc., Brea, Calif.). Cell viability in test conditions is reported as a percentage relative to the negative control treatment. […]

[6] = tested on: Calu-1 cells; experiment: Erastin-induced ferroptosis in Calu-1 cells, NOX pathway inhibitors; type: cell-based, human
Procedure: (§1) Cell viability was typically assessed in 384-well format by Alamar Blue (Invitrogen) fluorescence (ex/em 530/590) measured on a Victor3 platereader (Perkin Elmer, Waltham, Mass.). In some experiments, Trypan Blue dye exclusion counting was performed using an automated cell counter (ViCell, Beckman-Coulter Inc., Brea, Calif.). Cell viability in test conditions is reported as a percentage relative to the negative control treatment.

[7] = tested on: BJeLR and HT-1080 cells; experiment: Measurement of ATP levels; type: cell-based, human; details: normalized to viability
Procedure: ATP levels were evaluated using the ApoSENSOR ATP Assay Kit (Biovision Inc., Milpitas, Calif.) according to the manufacturer's instructions. 2000 HT-1080 or BJeLR cells were seeded in 96-well white bottom plates (Falcon). Cells were treated 12 hours later with compound as above for the TEM. Prior to luminescence measurement, medium was removed and cells were lysed and incubated with ATP Monitoring Enzyme. Luminescence was measured using a Victor3 platereader equipped with an infrared emission filter every 30 seconds for 10 minutes. Typically the first reading was used for data analysis. Parallel cell culture treatments were performed in 96-well clear bottom plates and cell viability was determined using Alamar Blue. These values were used to normalize ATP levels to cell viability.

[8] = molecular target: T1, system xc− (Homo sapiens, UniProt Q9UPY5); experiment: [14C]Cystine uptake assay in HT-1080 cells; type: cell-based; details: Erastin 10 μM, glutamate 50 mM, SAS 1 mM
T1 construct: endogenous in cells; host or cells: HT-1080 cells (ATCC)
T1 sequence (Q9UPY5 1-501): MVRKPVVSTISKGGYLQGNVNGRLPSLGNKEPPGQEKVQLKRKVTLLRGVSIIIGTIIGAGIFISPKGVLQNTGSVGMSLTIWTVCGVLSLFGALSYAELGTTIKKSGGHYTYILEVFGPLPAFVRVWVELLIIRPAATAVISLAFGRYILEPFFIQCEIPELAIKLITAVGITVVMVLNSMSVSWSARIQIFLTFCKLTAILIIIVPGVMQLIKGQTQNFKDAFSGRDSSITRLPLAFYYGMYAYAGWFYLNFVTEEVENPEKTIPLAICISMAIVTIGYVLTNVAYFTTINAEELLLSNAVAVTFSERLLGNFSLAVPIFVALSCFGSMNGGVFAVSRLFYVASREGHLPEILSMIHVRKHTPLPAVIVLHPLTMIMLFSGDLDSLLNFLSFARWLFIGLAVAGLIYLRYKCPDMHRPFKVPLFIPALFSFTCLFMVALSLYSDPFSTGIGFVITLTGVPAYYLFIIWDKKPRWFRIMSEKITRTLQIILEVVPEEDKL
T1 sequence (P08195 1-529 partner): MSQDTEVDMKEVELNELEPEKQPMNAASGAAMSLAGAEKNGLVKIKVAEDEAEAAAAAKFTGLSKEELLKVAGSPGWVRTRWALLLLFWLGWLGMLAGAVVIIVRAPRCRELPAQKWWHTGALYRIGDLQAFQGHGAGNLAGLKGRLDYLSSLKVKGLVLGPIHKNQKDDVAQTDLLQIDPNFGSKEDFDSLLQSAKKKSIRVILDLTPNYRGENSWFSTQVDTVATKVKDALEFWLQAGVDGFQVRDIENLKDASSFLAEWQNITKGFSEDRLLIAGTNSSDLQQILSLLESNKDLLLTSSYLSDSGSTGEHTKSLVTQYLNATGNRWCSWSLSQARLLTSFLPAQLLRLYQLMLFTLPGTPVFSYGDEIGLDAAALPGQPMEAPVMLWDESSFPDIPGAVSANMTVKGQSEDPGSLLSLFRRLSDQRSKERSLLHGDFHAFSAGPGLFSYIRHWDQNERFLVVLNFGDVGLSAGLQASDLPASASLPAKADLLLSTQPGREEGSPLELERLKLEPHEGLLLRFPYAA
Procedure: 200,000 HT-1080 cells/well were seeded overnight in 6-well dishes (Corning). […] At this point, in each well the buffer was replaced with 600 μL uptake buffer containing compound and 0.12 μCi (80-110 mCi/mmol) of L-[3,3′-^14C]-cystine (Perkin Elmer) and incubated for 3 minutes at 37° C. Cells were then washed three times with ice-cold uptake buffer and lysed in 500 μL 0.1 M NaOH. To this lysate was added 15 mL of scintillation fluid and radioactive counts per minute were obtained using a scintillation counter. All measurements were performed in triplicate for each condition.

[9] = tested on: 143B osteosarcoma cells; experiment: Erastin / RSL3 lethality in 143B ρ0 and ρ+ cells; type: cell-based, human; details: 24 hours
Procedure: as §1
Because two erastin targets, VDAC2 and VDAC3, reside in the mitochondria, it was hypothesized that erastin-induced death involved aberrant ROS production by the mitochondrial electron transport chain (ETC). […] Furthermore, KRAS-mutant 143B osteosarcoma cells incapable of ETC-dependent ROS formation, due to the depletion of mitochondrial DNA (mtDNA)-encoded transcripts (ρ^0 cells), were as sensitive to erastin and RSL3 as matched mtDNA-wild-type (ρ^+) cells (FIGS. 1E, 1F, and 8C-E). Thus, erastin-induced cell death in human cancer cells involves DFO-sensitive ROS accumulation and can occur in cells lacking a functional ETC. This iron-dependent death phenotype was named ferroptosis.

[10] = tested on: SLC7A11; experiment: SLC7A11 mRNA levels (RT-qPCR) in HT-1080 cells; type: cell-based, human; details: 6 hours
Procedure: RNA was extracted using the Qiashredder and Qiagen RNeasy Mini kits (Qiagen) according to the manufacturer's protocol. 2 μg total RNA for each sample was used as input for each reverse transcription reaction, performed using the TaqMan RT kit (Applied Biosystems, Life Technologies Corp., Carlsbad, Calif.). Primer pairs were designed for target transcripts using Primer Express 2.0 (Applied Biosystems). Quantitative PCR reactions were performed using the Power SYBR Green PCR Master Mix (Applied Biosystems). Triplicate samples per condition were analyzed on an Applied Biosystems 7300 qPCR instrument using absolute quantification settings. Differences in mRNA levels compared to HPRT1 or ACTB internal reference control were computed between control and experimental conditions using the ΔΔCt method.

**Q.** For `CCOC(=O)c1ccc(N)c(N)c1` [CA1], which “intrinsic antioxidant capability in the DPPH assay” value [1] is on record?
**A.** Its value is “destroyed the antioxidant capability”.

**Q.** What about the EC50 ([2]; SI Table 8, read-out: EC50) of the same molecule?
**A.** The EC50 was over 10 µM.

**Q.** And the “prevention of erastin-induced death” value [2]?
**A.** The value was “destroyed”.

**Q.** With `Cc1cc(C2CCCCC2)n(O)c(=O)c1` [CPX, ciclopirox olamine, reference compound] as the molecule, how does the “lysosomal membrane destruction in response to H2O2” value [3] read?
**A.** The value was “protects from lysosomal rupture”.

**Q.** And the “glutamate-induced cell death (PI uptake) in DG, CA1, CA3” value [4]?
**A.** The value was “attenuated significantly”.

**Q.** What about the “prevention of erastin-induced death” value [2] of the same molecule?
**A.** Its value is “suppressed erastin-induced death”.

**Q.** With `NC(=O)c1ccc(N)nc1` [Compound 6-AN, 6-aminonicotinamde] as the molecule, how does the “erastin-induced cell death and ROS production” value [5] read?
**A.** Its value is “prevented cell death as well as ROS production”.

**Q.** What about the “suppression of erastin-induced ferroptosis” value [6] of the same molecule?
**A.** Its value is “strongly suppressed”.

**Q.** For `OO` [Compound H2O2, hydrogen peroxide], which “intracellular ATP” value [7] is on record?
**A.** Its value is “substantial depletion of intracellular ATP”.

**Q.** Which “Na+-independent uptake of [14C]cystine” value [8] does the source give for `COC(=O)c1ccc([C@@H]2c3[nH]c4ccccc4c3C[C@@H](C(=O)OC)N2C(=O)CCl)cc1` [RSL3] here?
**A.** Its value is “had no effect on this process”.

**Q.** And the “sensitivity of ρ0 versus ρ+ cells” value [9]?
**A.** The value was “as sensitive”.

**Q.** What does the source list for `OCCS` [β-ME, β-mercaptoethanol, reference compound]?
**A.** prevention of erastin-induced death [2]: strongly inhibited cell death; effect on erastin/SAS-induced SLC7A11 upregulation [10]: suppressed
